Biological target: T1, human mGluR5d (Homo sapiens, UniProt P41594)
T1 construct: expressed in transfected cells; host or cells: GHEK (HEK cells expressing a glutamate transporter) for the IP3 assay
Assay: Functional assessment of mGluR5 antagonism in cell lines expressing mGluR5d (FLIPR calcium mobilization / IP3 turnover; assay behind the values not specified)
Type: cell-based
Settings: cells expressing human mGluR5d; FLIPR or IP3 assay not specified
Source text: The pharmacological properties of the compounds of the invention can be analyzed using standard assays for functional activity. Examples of glutamate receptor assays are well known in the art as described in for example Aramori et al., Neuron 8:757 (1992), Tanabe et al., Neuron 8:169 (1992), Miller et al., J. Neuroscience 15: 6103 (1995), Balazs, et al., J. Neurochemistry 69:151 (1997). The methodology described in these publications is incorporated herein by reference. Conveniently, the compounds of the invention can be studied by means of an assay that measures the mobilization of intracellular calcium, [Ca^2+]i in cells expressing mGluR5.
Intracellular calcium mobilization was measured by detecting changes in fluorescence of cells loaded with the fluorescent indicator fluo-3. Fluorescent signals were measured using the FLIPR system (Molecular Devices). […]
FLIPR experiments were done using a laser setting of 0.800 W and a 0.4 second CCD camera shutter speed. […] After each addition of the compound, the fluorescence signal was sampled 50 times at 1 second intervals followed by 3 samples at 5 second intervals. Responses were measured as the peak height of the response within the sample period. […]
We have validated a secondary functional assay for mGluR5d based on Inositol Phosphate (IP3) turnover. IP3 accumulation is measured as an index of receptor mediated phospholipase C turnover. […]

T1 sequence (P41594 21-942 isoform P41594-3 limits assumed): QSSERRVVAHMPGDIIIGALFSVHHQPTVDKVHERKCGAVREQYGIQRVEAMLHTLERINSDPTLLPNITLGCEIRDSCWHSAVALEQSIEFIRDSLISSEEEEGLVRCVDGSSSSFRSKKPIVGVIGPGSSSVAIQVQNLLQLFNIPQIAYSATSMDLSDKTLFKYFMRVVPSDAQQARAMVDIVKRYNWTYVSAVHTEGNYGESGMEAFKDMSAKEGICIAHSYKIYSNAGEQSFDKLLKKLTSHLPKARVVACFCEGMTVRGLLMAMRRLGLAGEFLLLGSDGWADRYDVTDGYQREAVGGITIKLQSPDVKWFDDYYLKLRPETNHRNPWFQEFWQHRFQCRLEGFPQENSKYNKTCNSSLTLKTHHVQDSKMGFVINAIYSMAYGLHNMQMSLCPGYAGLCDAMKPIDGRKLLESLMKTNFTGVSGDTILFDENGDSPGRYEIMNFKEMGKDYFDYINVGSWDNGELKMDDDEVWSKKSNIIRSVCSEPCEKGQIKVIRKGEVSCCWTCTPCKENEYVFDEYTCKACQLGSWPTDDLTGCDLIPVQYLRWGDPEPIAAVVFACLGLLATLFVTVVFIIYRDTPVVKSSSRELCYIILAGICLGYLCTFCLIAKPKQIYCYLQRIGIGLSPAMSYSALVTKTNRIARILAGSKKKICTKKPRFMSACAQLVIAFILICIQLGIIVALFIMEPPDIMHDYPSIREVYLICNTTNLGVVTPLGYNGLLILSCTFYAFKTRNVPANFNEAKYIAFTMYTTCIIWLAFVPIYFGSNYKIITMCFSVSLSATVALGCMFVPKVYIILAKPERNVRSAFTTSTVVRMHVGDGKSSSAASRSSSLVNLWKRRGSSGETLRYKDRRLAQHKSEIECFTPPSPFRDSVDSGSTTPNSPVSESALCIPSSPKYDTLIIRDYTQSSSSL

SMILES | IC50 [nM]
CC(c1cn(-c2cccc(Cl)c2)nn1)N1CCN(c2ncccc2C#N)CC1 (centres unmarked) [Example 15.16, 2-(4-{1-[1-(3-chlorophenyl)-1H-1,2,3-triazol-4-yl]ethyl}piperazin-1-yl)nicotinonitrile] | 1080
CC(c1cn(-c2cccc(Cl)c2)nn1)N1CCN(c2ccc(C#N)cn2)CC1 (centres unmarked) [Example 15.17, 6-(4-{1-[1-(3-chlorophenyl)-1H-1,2,3-triazol-4-yl]ethyl}piperazin-1-yl)nicotinonitrile] | 159

Reference: patent US20080312246A1, “Substituted Piperazines as Metabotropic Glutamate Receptor Antagonists” (AstraZeneca AB, priority 2005, published 2008)
